In patent US20240139207A1, “METHODS FOR TREATING PULMONARY HYPERTENSION” (United Therapeutics Corporation, priority 2022, published 2024):

Legend:
[1] = tested on: patients with pulmonary arterial hypertension; assay: Phase 4 open-label 16-week study: safety and tolerability, prostanoid-related adverse events; assay type: in vivo, human
Description: Safety and tolerability were assessed at each scheduled visit and in between visits as needed throughout the duration of the study. Tolerability measures of interest included incidence of all adverse events (AEs) and prostanoid-related AEs including headache, diarrhea, nausea, vomiting, flushing, jaw pain and extremity pain. […] Prostanoid-related events captured by the survey were only recorded if the event was unusual with respect to intensity, frequency, or duration compared to symptoms in the patient's medical history. Patient compliance with taking oral treprostinil was assessed by performing study drug accountability at each scheduled study visit. The primary endpoint and all efficacy endpoints were analyzed using the per-protocol population, which included all patients without major protocol deviations unless otherwise specified. The exact (Clopper-Pearson) 95% confidence interval was calculated for the primary endpoint. […] For continuous variables, descriptive statistics are reported as median (interquartile range, IQR or range) or mean (±standard deviation, SD). For categorical variables, descriptive statistics include frequency and percentage of patients in each category. Changes from baseline to Week 16 for continuous variables were analyzed using Wilcoxon signed rank test. The change in FC from baseline to Week 16 was analyzed using McNemar's test. The p-values from these tests were derived for descriptive purposes and not part of a formal hypothesis testing framework.

[2] = tested on: patients with pulmonary arterial hypertension; assay: Phase 4 open-label 16-week study: clinical parameters, risk stratification, patient-reported outcomes; assay type: in vivo, human; details: transition visit
Source text: The secondary endpoints of this study included measurements in: changes in prostanoid adverse events (AEs), echocardiograms, change in 6-minute walk distance (6MWD), change in Borg dyspnea score, change in World Health Organization (WHO) functional class (FC), change in serum N-terminal pro-brain natriuretic peptide (NT-proBNP) levels, impact of pulmonary hypertension on a person's life (health-related quality of life), and treatment satisfaction. Specifically, this study sought to measure the percentage of subjects that improved in each of the following individual four clinical parameters at Week 16 (6MWD, NT-proBNP, WHO FC, right atrial area) to a lower risk stratum, as defined by the 2015 ESC/ERS guidelines (Gailè et al., DOI: 10.1183/13993003.01032-2015), compared to baseline measurements. An additional endpoint was determining the percentage of subjects that meet each of the following four individual clinical parameters at Week 16 in the low risk category, as defined by 2015 ESC/ERS guidelines: 6MWD>440 meters, […].
(§1) Based on the 2015 ESC/ERS Guidelines, specific hemodynamic inclusion criteria included a mean pulmonary arterial pressure ≥25 mmHg, pulmonary artery wedge pressure or left ventricular end-diastolic pressure ≤15 mmHg, and pulmonary vascular resistance >3 Wood units, in the absence of unrepaired congenital heart disease. Other key inclusion criteria were World Health Organization functional class (FC) II or III, 6-minute walk distance (6MWD)≥250 m, and a REVEAL 2.0 risk score ≤9 (Benza et al. 2021, DOI: https://doi.org/10.1016/j.chest.2020.08.2069). Patients could be receiving up to two oral PAH background therapies if taken at a stable dose for ≥30 days prior to baseline. As this study focused on the addition of a new therapy rather than the replacement of one therapy by another therapy, participants were eligible regardless of the number of pulmonary arterial hypertension background therapies (0, 1, or 2) they were receiving at baseline. […] Baseline assessments were collected up to 14 days prior to initiation of parenteral treprostinil, and included hemodynamics via echocardiogram and RHC, FC, N-terminal-pro brain natriuretic peptide (NT-proBNP), 6MWD, and medication history. Of note, historical RHC data could be used for baseline assessments if performed up to 180 days prior to initiating parenteral treprostinil. Echocardiograms were uploaded and stored in a central repository and evaluated by an independent central reader in accordance with the American Society of Echocardiography Guidelines (Bossone et al., DOI: 10.1016/j.echo.2012.10.009).
(§2) Once patients reached at least 20 ng/kg/min and were deemed suitable for transition based on physician assessment, they were transitioned at Week 2,4, or 8 to oral treprostinil via cross-titration in an inpatient or outpatient setting over 1-21 days. All participants still receiving parenteral treprostinil at Week 8 began transitioning to oral treprostinil regardless of their parenteral treprostinil dose unless deemed unsuitable for transition by their clinician. Before transition, 6MWD, WHO FC, NT-proBNP, and echocardiography parameters were assessed.
The primary endpoint was the percentage of patients who achieved an oral treprostinil TDD of at least 12 mg (0.171 mg/kg for patients <70 kg) at Week 16. Secondary endpoints included change from baseline to Week 16 in risk strata and clinical parameters, where baseline values were collected within 14 days prior to parenteral treprostinil initiation. Changes in risk strata for FC, NT-proBNP, 6MWD, and right atrial (RA) area were assessed using the 2015 ESC/ERS Guidelines, which categorizes risk for each determinant as low, intermediate, and high (Galiè et al., 2016). Clinical parameters of interest included FC, NT-proBNP, 6MWD, echocardiography parameters, REVEAL Lite 2 score (Benza et al., 2021), and Borg Dyspnea Score (Borg, 1982, DOI: https://doi.org/10.1249/00005768-198205000-00012). […]

[3] = tested on: patients with pulmonary arterial hypertension; assay: Phase 4 open-label 16-week study: echocardiography parameters; assay type: in vivo, human; details: transition visit; per-protocol population
Source text: as §1, §2
The primary endpoint was the percentage of patients who achieved an oral treprostinil TDD of at least 12 mg (0.171 mg/kg for patients <70 kg) at Week 16. Secondary endpoints included change from baseline to Week 16 in risk strata and clinical parameters, where baseline values were collected within 14 days prior to parenteral treprostinil initiation. Changes in risk strata for FC, NT-proBNP, 6MWD, and right atrial (RA) area were assessed using the 2015 ESC/ERS Guidelines, which categorizes risk for each determinant as low, intermediate, and high (Galiè et al., 2016). Clinical parameters of interest included FC, NT-proBNP, 6MWD, echocardiography parameters, REVEAL Lite 2 score (Benza et al., 2021), and Borg Dyspnea Score (Borg, 1982, DOI: https://doi.org/10.1249/00005768-198205000-00012). The REVEAL Lite 2 score includes clinical parameters to determine the risk status (low, intermediate, and high) for pulmonary arterial hypertension. The Borg Dyspnea Score ranges from 0 to 10, where 0 indicates no dyspnea and 10 indicates very, very heavy (almost maximal) dyspnea. Patient-reported outcomes were assessed using the emPHasis-10 quality of life questionnaire (Yorke et al., 2014, DOI: 10.1183/09031936.00127113) and the Pulmonary Arterial Hypertension Symptom Scale (PAHSS) (Matura et al., 2015, DOI: https://doi.org/10.1016/j.apnr.2014.04.001). The Treatment Satisfaction Questionnaire for Medication (TSQM) (Atkinson et al., 2004, DOI: https://doi.org/10.1186/1477-7525-2-12) was used to measure patient satisfaction with their medication over the last two to three weeks; higher scores indicate greater satisfaction. EmPHasis-10 scores can range from 0 to 50, where lower scores indicate better quality of life. […]

[4] = tested on: Pulmonary arterial hypertension patients; details: cited from earlier work
[5] = Parenteral Treprostinil Phase (Before Transition), n = 35
[6] = per-protocol population (n=29), while on the labelled form

## CCCCC[C@H](O)CC[C@@H]1[C@H]2Cc3cccc(OCC(=O)O)c3C[C@H]2C[C@H]1O [treprostinil]
[1]; Transition Phase, n = 33
  Diarrhea, patients with AE: 17 (52) n (%)
  Extremity pain, patients with AE: 10 (30) n (%)
  Flushing, patients with AE: 10 (30) n (%)
  Headache, patients with AE: 19 (58) n (%)
  Jaw pain, patients with AE: 15 (46) n (%)
  Nausea, patients with AE: 21 (64) n (%)
  Vomiting, patients with AE: 5 (15) n (%)

## CCCCC[C@H](O)CC[C@@H]1[C@H]2Cc3cccc(OCC(=O)O)c3C[C@H]2C[C@H]1O [parenteral treprostinil, treprostinil]
[1]; [5]
  Diarrhea, patients with AE: 18 (51) n (%)
  Extremity pain, patients with AE: 12 (34) n (%)
  Flushing, patients with AE: 10 (29) n (%)
  Headache, patients with AE: 28 (80) n (%)
  Jaw pain, patients with AE: 16 (46) n (%)
  Nausea, patients with AE: 24 (69) n (%)
  Vomiting, patients with AE: 13 (37) n (%)
[1]; during the phase of the labelled form
  most bothersome AE: extremity pain, followed by jaw pain, headache, and diarrhea
[1]; patients who initiated parenteral treprostinil
  patients reporting at least one treatment-emergent AE: All patients
[1]; [6]
  participants who received acetaminophen for prostacyclin-related headache: 55%
  participants who received loperamide for prostacyclin-related diarrhea: 34%
  participants who received ondansetron for prostacyclin-related nausea/vomiting: 69%
[2]; 29 patients
  patients who improved WHO FC: 76%
  patients who maintained WHO FC: 21%
  patients who worsened WHO FC: 3%
[2]; per-protocol population
  6MWD, median (IQR): 377 (318, 453) m
  NT-proBNP, median (IQR): 186 (110, 724) ng/L
[3]
  TAPSE, median (IQR): 18.1 (14.8, 20.9) mm
  right atrial area, median (IQR): 19.3 (16.0, 26.7) cm2

## O=C(O)COC[C@H]1CC[C@H](COC(=O)N(c2ccccc2)c2ccc(Cl)cc2)CC1 [ralinepag]
[4]
  outcomes, including pulmonary vascular resistance and 6-minute walk distances, versus placebo: better outcomes
